Source: patent US20250353864A1, “INDAZOLE CONTAINING MACROCYCLES AND THEIR USE” (BLOSSOMHILL THERAPEUTICS, INC., priority 2022, published 2025)

Legend:
Assay type in all cases: biochemical
EGFR L858R mutant = EGFR L858R mutant (Homo sapiens (Human), UniProt P00533, L858R); assay: HotSpot radiometric kinase assay, EGFR L858R mutant; settings: 10 μM ATP
Method in brief: (§1)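 Radiometric filter-binding assay with EGFR mutant kinase/substrate pairs in 20 mM Hepes pH 7.5 with Mg, EGTA, Brij35, BSA, Na3VO4, DTT, 1% DMSO. Compound preincubated ~20 min, then ATP/^33P-ATP added at 10 μM final. Reaction 120 min at room temperature, spotted on P81 paper; IC50 from curve fits.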

EGFR L858R/T790M mutant = EGFR L858R/T790M mutant (Homo sapiens (Human), UniProt P00533, L858R/T790M); assay: HotSpot radiometric kinase assay, EGFR L858R/T790M mutant; settings: 10 μM ATP
Method in brief: as §1

EGFR (D770_N771insNPG) = EGFR (D770_N771insNPG) (Homo sapiens (Human), UniProt P00533, INS770NPG); assay: HotSpot radiometric kinase assay, EGFR (D770_N771insNPG); settings: 10 μM ATP, read-out: EGFR (Δ770_N771insNPG) IC50
Method in brief: as §1

CLK1 = CLK1 (Homo sapiens (Human), UniProt P49759); assay: Inhibition of CLK1 kinase activity evaluated at Nanosyn (ADP-Glo); settings: ADP-Glo luminescence
Method in brief: (§2)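 Percent inhibition derived from luminescent ADP detection (ADP-Glo), normalised to DMSO-only and enzyme-free wells. Reactions ran in HEPES pH 7.5 buffer with Mg2+, Triton X-100 and BSA, 1% DMSO, ATP-initiated, for an assay-specific time.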

[1] = target: EGFR L858R/T790M/C797S mutant (Homo sapiens (Human), UniProt P00533, C797S/L858R/T790M); assay: HotSpot radiometric kinase assay, EGFR L858R/T790M/C797S mutant; settings: 10 μM ATP
Method in brief: as §1

CLK3 = CLK3 (Homo sapiens (Human), UniProt P49761); assay: Inhibition of CLK3 kinase activity evaluated at Nanosyn (ADP-Glo); settings: ADP-Glo luminescence
Method in brief: as §2

EGFR WT = EGFR WT (Homo sapiens (Human), UniProt P00533); assay: HotSpot radiometric kinase assay (Reaction Biology), EGFR WT; settings: 10 μM ATP
Method in brief: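 Compounds were preincubated ~20 min with kinase/substrate in pH 7.5 Hepes buffer (MgCl2, EGTA, Brij35, BSA, Na3VO4, DTT, 1% DMSO), then ATP plus 33P-ATP was added to 10 μM final. After 120 min at room temperature, reactions were spotted on P81 filters and washed; IC50 values came from curve fits.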

[2] = target: EGFR Δ746-750/C797S mutant (Homo sapiens (Human), UniProt P00533, C797S/DEL746-750); assay: HotSpot radiometric kinase assay, EGFR Δ746-750/C797S mutant; settings: 10 μM ATP
Method in brief: as §1

CLK4 = CLK4 (Homo sapiens (Human), UniProt Q9HAZ1); assay: Inhibition of CLK4 kinase activity evaluated at Nanosyn (ADP-Glo); settings: ADP-Glo luminescence
Method in brief: as §2

EGFR Δ746-750 mutant = EGFR Δ746-750 mutant (Homo sapiens (Human), UniProt P00533, DEL746-750); assay: HotSpot radiometric kinase assay, EGFR Δ746-750 mutant; settings: 10 μM ATP
Method in brief: as §1

CLK2 = CLK2 (Homo sapiens (Human), UniProt P49760); assay: Inhibition of CLK2 kinase activity evaluated at Nanosyn (ADP-Glo); settings: ADP-Glo luminescence
Method in brief: as §2

Sequence of EGFR L858R mutant (P00533 25-1210 L858R): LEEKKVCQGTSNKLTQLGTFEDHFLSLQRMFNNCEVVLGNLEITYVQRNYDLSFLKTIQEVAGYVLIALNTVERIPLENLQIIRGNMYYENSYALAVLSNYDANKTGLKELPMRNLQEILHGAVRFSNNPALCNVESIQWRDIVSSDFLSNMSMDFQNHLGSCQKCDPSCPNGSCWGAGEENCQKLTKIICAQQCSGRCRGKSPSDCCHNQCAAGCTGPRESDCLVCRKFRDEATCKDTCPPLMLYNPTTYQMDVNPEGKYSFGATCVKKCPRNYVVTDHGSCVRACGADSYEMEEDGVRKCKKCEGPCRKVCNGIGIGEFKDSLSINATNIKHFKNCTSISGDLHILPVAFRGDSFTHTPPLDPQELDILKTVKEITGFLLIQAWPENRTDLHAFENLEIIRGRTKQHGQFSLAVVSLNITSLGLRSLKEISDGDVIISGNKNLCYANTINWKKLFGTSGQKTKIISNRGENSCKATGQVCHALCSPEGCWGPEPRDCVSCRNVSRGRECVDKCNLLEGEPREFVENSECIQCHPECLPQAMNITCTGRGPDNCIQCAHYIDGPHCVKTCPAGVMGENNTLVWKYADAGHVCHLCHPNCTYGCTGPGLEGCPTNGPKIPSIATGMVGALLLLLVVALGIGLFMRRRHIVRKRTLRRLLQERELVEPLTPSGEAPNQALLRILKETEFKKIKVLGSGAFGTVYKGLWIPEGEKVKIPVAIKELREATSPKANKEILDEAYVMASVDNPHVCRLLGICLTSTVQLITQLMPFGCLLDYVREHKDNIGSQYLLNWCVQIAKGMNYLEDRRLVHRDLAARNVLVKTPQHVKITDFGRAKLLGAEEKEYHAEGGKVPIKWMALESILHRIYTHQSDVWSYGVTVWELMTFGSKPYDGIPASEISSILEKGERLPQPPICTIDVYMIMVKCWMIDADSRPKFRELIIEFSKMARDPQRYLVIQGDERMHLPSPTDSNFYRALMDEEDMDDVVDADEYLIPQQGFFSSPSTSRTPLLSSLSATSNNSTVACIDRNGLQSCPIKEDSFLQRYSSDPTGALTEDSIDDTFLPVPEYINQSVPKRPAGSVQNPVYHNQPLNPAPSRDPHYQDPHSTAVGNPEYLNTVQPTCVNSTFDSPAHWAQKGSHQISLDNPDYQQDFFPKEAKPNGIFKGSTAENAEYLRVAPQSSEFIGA
Sequence of CLK2 (P49760 whole entry): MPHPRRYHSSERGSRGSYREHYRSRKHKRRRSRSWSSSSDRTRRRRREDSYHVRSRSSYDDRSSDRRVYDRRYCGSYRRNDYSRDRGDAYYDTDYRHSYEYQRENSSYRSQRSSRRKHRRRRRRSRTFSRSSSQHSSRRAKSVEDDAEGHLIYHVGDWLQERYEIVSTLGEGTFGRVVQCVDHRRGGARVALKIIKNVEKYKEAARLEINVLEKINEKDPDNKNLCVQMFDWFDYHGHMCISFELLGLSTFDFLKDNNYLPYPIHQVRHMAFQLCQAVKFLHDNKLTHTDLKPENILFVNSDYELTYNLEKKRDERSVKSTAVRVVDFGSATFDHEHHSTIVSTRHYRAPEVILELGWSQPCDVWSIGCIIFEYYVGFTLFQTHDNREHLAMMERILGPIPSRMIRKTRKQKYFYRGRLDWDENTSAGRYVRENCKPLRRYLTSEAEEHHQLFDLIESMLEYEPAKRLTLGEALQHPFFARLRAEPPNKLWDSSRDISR
Sequence of CLK1 (P49759 whole entry): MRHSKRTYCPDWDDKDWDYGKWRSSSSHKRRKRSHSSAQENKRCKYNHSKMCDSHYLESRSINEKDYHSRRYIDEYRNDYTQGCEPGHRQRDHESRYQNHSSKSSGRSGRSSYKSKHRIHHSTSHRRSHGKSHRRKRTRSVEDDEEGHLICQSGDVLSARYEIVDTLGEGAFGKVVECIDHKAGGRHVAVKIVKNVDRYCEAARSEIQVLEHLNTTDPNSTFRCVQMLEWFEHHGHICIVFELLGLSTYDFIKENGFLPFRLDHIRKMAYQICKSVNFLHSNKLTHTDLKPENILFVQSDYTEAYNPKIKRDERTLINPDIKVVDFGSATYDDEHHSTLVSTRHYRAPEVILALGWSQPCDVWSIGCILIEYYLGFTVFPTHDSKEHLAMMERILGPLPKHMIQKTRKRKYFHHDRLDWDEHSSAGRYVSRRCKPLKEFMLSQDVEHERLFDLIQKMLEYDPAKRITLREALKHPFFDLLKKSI
Sequence of EGFR L858R/T790M/C797S mutant (P00533 25-1210 T790M/C797S/L858R): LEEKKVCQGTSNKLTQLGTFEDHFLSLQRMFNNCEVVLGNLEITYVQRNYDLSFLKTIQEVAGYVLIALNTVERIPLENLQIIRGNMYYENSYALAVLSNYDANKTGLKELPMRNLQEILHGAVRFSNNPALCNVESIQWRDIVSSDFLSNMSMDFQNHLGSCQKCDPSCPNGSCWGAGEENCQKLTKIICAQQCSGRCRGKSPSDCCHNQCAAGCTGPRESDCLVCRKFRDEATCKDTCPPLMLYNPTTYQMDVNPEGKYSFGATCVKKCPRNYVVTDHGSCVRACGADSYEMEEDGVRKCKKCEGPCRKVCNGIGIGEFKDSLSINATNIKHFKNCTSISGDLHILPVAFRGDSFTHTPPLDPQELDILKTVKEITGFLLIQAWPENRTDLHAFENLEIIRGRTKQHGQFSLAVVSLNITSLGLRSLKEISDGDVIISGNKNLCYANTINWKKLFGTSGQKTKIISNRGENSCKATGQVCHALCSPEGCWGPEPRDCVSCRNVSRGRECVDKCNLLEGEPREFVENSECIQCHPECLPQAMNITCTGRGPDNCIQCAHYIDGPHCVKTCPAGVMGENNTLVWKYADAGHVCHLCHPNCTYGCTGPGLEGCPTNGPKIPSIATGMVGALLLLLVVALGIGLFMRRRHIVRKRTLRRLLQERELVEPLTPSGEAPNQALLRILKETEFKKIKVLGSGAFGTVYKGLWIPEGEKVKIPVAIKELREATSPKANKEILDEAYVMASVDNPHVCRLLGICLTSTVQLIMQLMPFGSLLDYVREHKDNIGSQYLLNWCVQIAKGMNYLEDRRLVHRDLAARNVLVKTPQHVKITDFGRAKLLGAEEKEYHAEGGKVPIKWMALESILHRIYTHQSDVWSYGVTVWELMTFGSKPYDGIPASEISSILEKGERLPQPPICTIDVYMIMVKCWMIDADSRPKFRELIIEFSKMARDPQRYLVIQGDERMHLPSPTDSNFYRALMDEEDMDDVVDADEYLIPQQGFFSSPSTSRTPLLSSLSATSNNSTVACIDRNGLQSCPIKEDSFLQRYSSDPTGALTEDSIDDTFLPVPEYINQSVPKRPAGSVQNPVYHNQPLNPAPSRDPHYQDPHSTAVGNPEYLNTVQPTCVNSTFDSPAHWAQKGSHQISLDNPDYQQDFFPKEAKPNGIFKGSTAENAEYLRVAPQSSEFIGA
Sequence of EGFR L858R/T790M mutant (P00533 25-1210 T790M/L858R): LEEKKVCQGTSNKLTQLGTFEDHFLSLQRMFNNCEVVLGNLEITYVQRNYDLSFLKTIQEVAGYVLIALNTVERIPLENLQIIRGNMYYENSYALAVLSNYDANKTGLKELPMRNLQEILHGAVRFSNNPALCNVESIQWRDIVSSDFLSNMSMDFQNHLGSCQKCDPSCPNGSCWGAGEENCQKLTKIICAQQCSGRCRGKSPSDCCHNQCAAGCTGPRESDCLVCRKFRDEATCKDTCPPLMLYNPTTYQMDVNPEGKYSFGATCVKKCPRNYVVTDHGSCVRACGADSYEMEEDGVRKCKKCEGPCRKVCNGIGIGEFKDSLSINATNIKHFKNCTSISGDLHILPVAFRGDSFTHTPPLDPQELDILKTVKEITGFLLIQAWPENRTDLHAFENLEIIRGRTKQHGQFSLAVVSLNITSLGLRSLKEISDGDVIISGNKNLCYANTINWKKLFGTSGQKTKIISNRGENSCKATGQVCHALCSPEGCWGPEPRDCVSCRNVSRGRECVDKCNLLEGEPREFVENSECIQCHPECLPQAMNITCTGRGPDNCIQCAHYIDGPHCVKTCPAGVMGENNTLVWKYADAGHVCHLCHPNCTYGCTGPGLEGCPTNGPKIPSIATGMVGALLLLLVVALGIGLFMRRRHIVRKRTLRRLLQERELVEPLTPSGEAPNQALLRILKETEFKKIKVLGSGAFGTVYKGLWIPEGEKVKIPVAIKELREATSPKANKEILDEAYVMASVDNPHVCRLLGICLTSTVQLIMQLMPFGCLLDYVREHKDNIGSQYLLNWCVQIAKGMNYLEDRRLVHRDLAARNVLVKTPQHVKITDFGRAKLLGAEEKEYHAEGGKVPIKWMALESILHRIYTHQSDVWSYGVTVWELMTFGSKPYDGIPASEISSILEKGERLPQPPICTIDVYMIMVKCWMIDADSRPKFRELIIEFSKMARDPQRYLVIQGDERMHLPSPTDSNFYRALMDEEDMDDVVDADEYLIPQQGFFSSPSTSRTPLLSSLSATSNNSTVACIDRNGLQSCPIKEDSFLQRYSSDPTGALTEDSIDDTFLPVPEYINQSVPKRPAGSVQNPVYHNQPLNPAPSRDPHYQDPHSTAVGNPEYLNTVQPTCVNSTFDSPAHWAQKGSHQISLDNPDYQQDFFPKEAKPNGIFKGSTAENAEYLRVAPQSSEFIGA
Sequence of CLK4 (Q9HAZ1 whole entry): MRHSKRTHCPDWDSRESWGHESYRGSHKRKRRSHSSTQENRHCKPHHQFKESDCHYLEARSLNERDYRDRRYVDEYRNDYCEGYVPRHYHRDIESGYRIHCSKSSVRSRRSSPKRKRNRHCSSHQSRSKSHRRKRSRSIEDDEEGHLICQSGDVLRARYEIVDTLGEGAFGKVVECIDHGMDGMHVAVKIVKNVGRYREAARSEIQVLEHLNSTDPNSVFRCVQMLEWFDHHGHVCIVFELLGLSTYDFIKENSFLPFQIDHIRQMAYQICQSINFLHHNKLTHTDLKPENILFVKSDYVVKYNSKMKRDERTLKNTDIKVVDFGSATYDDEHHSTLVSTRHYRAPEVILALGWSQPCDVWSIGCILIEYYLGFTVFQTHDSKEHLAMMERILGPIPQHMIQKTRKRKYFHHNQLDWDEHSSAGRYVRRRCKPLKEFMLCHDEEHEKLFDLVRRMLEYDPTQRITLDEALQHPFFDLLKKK

Compound	IC50 (EGFR L858R mutant) [nM]	IC50 (EGFR L858R/T790M mutant) [nM]	IC50 (EGFR (D770_N771insNPG)) [nM]	IC50 (CLK1) [nM]	IC50 [1] [nM]	IC50 (CLK3) [nM]	IC50 (EGFR WT) [nM]	IC50 [2] [nM]	IC50 (CLK4) [nM]	IC50 (EGFR Δ746-750 mutant) [nM]	IC50 (CLK2) [nM]
CCOc1noc2c1/C=C/c1n[nH]c3ccc(cc13)-c1cnn(C)c1O[C@@H](C)CN(C)C2 [Example 183, (10S,17E)-16-ethoxy-8,10,12-trimethyl-2,8,10,11,12,13-hexahydro-3,5-etheno[1,2]oxazolo[5,4-f]dipyrazolo[3,4-j:4′,3′-n][1,4]oxazacyclopentadecine]	61.5	0.65	534	0.82	1.05	155	195	17.7	1.83	53.8	0.24
CCOc1nn(CCO)c2c1/C=C/c1n[nH]c3ccc(cc13)-c1cnn(CC)c1O[C@@H](C)CN(C)C2 [Example 168, 2-[(10S,17E)-16-ethoxy-8-ethyl-10,12-dimethyl-2,8,10,11,12,13-hexahydro-14H-3,5-ethenotripyrazolo[3,4-f:3′,4′-j:4″,3″-n][1,4]oxazacyclopentadecin-14-yl]ethan-1-ol]	1.88	0.72	13.9	0.39	2.72	238	16.6	1.38	0.77	5.96	0.33
Cc1c2c(nn1C[C@H](C)O)CN(C)C[C@H](C)Oc1c(cnn1C)-c1ccc3[nH]nc(c3c1)/C=C/2 [Example 124, (2S)-1-[(10S,17E)-8,10,12,16-tetramethyl-2,8,10,11,12,13-hexahydro-15H-3,5-ethenotripyrazolo[3,4-f:3′,4′-j:4″,3″-n][1,4]oxazacyclopentadecin-15-yl]propan-2-ol]	18.3	3.32	140	0.15	2.32	186	168	13.9	0.37	18.3	0.29
Cc1nn(CCO)c2c1/C=C/c1n[nH]c3cc(F)c(cc13)-c1cnn(C)c1O[C@@H](C)CN(C)C2 [Example 116, 2-[(10S,17E)-19-fluoro-8,10,12,16-tetramethyl-2,8,10,11,12,13-hexahydro-14H-3,5-ethenotripyrazolo[3,4-f:3′,4′-j:4″,3″-n][1,4]oxazacyclopentadecin-14-yl]ethan-1-ol]	0.58	0.38	18.5	0.11	2.71	10.9	3.98	2.85	0.4	1.06	0.04
C[C@H](C#N)Oc1nn(CCO)c2c1/C=C/c1n[nH]c3cc(F)c(cc13)-c1cnn(C)c1O[C@@H](C)CN(C)C2 [Ex. 268, (2R)-2-{[(10S,17E)-19-fluoro-14-(2-hydroxyethyl)-8,10,12-trimethyl-2,10,11,12,13,14-hexahydro-8H-3,5-ethenotripyrazolo[3,4-f:3′,4′-j:4″,3″-n][1,4]oxazacyclopentadecin-16-yl]oxy}propanenitrile]	4.35	1.04	30.5	0.57	0.52	45.1	7.91	1.32	1.22	2.01	0.18
CC(C)Oc1nn(CCO)c2c1/C=C/c1n[nH]c3cc(F)c(cc13)-c1cnn(C)c1O[C@@H]1CCCN(C2)C1 [Example 199, 2-[(10R,19E)-22-fluoro-8-methyl-18-[(propan-2-yl)oxy]-2,10,11,12,13,15-hexahydro-3,5-etheno-10,14-methanotripyrazolo[3,4-h:3′,4′-l:4″,3″- p][1,6]oxazacycloheptadecin-16(8H)-yl]ethan-1-ol]	87.8	64.4	> 1000	1.05	43.9	19.3	1280	42.5	1.79	147	2.29
CCOc1nn(CCO)c2c1/C=C/c1n[nH]c3ccc(cc13)-c1cnn(C)c1O[C@H](C)CNC2 [Example 197, 2-[(10R,17E)-16-ethoxy-8,10-dimethyl-2,8,10,11,12,13-hexahydro-14H-3,5-ethenotripyrazolo[3,4-f:3′,4′-j:4″,3″- n][1,4]oxazacyclopentadecin-14-yl]ethan-1-ol]	95.2	4.58	217	1.16	2.18	78.6	194	29.8	1.59	62	3.06
Cc1nn(C)c2c1/C=C/c1n[nH]c3ccc(cc13)-c1cnn(C)c1O[C@@H](C)CN(C)[C@@H]2C (single isomer, unassigned) [Example 144]	1.47	0.41	24.5	0.21	0.7	168	8.81	1.93	0.55	1.88	0.05
Cc1nn(C)c2c1/C=C/c1n[nH]c3ccc(cc13)-c1cnn(C)c1O[C@@H]1CCN(C2)C1 [Example 167, (10R,18E)-8,15,17-trimethyl-2,8,11,12,14,15-hexahydro-10H-3,5-etheno-10,13-methanotripyrazolo[3,4-g:3′,4′-k:4″,3″- 0][1,5]oxazacyclohexadecine]	35.7	3.42	47.1	0.38	8.89	108	123	13.6	0.55	23.8	0.23

Continued by falling IC50 (EGFR L858R mutant), values first:

IC50 (EGFR L858R mutant) [nM]	IC50 (EGFR L858R/T790M mutant) [nM]	IC50 (EGFR (D770_N771insNPG)) [nM]	IC50 (CLK1) [nM]	IC50 [1] [nM]	IC50 (CLK3) [nM]	IC50 (EGFR WT) [nM]	IC50 [2] [nM]	IC50 (CLK4) [nM]	IC50 (EGFR Δ746-750 mutant) [nM]	IC50 (CLK2) [nM]	Compound
157	20.1	284	0.19	35.3	0.28	721	67	0.3	39.4	0.02	Cn1ncc2c1OCCN1CC[C@@H](Oc3ccc(F)cc3/C=C/c3n[nH]c4ccc-2cc34)C1=O [Example 132, (10R,16E)-14-fluoro-3-methyl-3,5,6,9,10,19-hexahydro-8H-20,22-etheno-7,10-methanodipyrazolo[3,4-i:4′,3′-m][1,8,5]benzodioxazacyclooctadecin-25-one]
39.9	6.18	156	36.6	3.67	435	99.7	8.68	22.3	18.6	53.5	CC(C)Oc1nn(CCO)c2c1/C=C/c1n[nH]c3cc(F)c(cc13)-c1cnn(C)c1O[C@H](C)CN(C(C)C)C2 [Example 195, 2-{(10R,17E)-19-fluoro-8,10-dimethyl-12-(propan-2-yl)-16-[(propan-2-yl)oxy]-2,8,10,11,12,13-hexahydro-14H-3,5-ethenotripyrazolo[3,4-f:3′,4′-j:4″,3″- n][1,4]oxazacyclopentadecin-14-yl}ethan-1-ol]
18.6	2.07	133	0.32	2.8	188	164	19.8	0.49	16.1	0.12	Cc1c2c(nn1C)/C=C/c1n[nH]c3ccc(cc13)-c1cnn(C)c1O[C@@H](C)CN(C)C2 [Example 126, (10S,17E)-8,10,12,14,15-pentamethyl-2,10,11,12,13,15-hexahydro-8H-3,5-ethenotripyrazolo[4,3-f:3′,4′-j:4″,3″-n][1,4]oxazacyclopentadecine]
0.1	0.11	0.91	0.23	0.98	20.9	0.38	0.92	0.46	0.17	0.12	Cc1nn(CCO)c2c1/C=C/c1n[nH]c3ccc(cc13)-c1cnn(C)c1O[C@@H](C)CN(C(C)C)C2 [Example 114, 2-[(10S,17E)-8,10,16-trimethyl-12-(propan-2-yl)-2,8,10,11,12,13-hexahydro-14H-3,5-ethenotripyrazolo[3,4-f:3′,4′-j:4″,3″- n][1,4]oxazacyclopentadecin-14-yl]ethan-1-ol]
